Measurements: patent US7001920B2, “Formate salt of O-desmethyl-venlafaxine” (Wyeth, priority 2002, dated 2006)
Blank lines part the entries; values can stand above or below the molecule they belong to.

Tests used:
[1] = Rat intestinal perfusion test (in situ), effective intestinal permeability Peff; assay type: in vivo; settings: for Peff ODV Fumarate: 50 μg/ml in pH 6.8 perfusion buffer
Method: O-desmethyl venlafaxine formate was evaluated for oral absorption characteristics. The rat intestinal perfusion model was used.
Rat Intestinal Perfusion Test
(§1) The rat intestine perfusion technique is a direct way to measure the regional absorption properties of a test compound in the gastrointestinal tract. Rat intestinal permeability coefficient (Peff) can be used to predict human in vivo oral absorption of passively absorbed compounds. Fagerholm, M. Johansson, and H. Lennernäs, ? Comparison between permeability coefficients in rat and human jejunum”, Pharm. […] Other characteristics such as formulable Maximum Absorbable Dose (MAD), FDA Biopharmaceutical Classification, etc. can also be estimated.
Perfusion buffer (PB) consisted of KC1 (5.4 mM), NaC1 (48 mM), Na2HPO4 (28 mM), NaH2PO4 (43 mM), mannitol (35 mM), polyethylene glycol (PEG)-4000 (0.1%, w/v), glucose (10 mM). The pH was adjusted to 6.8 with NaOH and osmolarity was adjusted to 290+10 mOsm/l with 1.0 M NaC1. Before the experiment, ^14C-PEC-4000 (0.02 μCi/mL), 3H-mannitol (0.025 μCi/mL), metoprolol (20 μg/mL), and ODV formate or fumarate (50 μg/mL) were added.
Rats used in this study were Charles River CD males, ranging in weight from approximately 300–350 grams.
Metoprolol (a well-absorbed and passively transported compound) was used as a standard and tested simultaneously along with the ODV compounds. Glucose (a well-absorbed and actively transported compound) was used to monitor the physiological functionality of the intestinal barriers. ^14C-labeled PEG-4000 was used as a non-absorbable marker to describe the water flux across the intestinal wall. ^3H-labeled mannitol was used as a paracellularly transported marker to indicate the integrity of the intestinal tight junctions.
All chemicals were of analytical grade. After each experiment, all the analytical assays were performed promptly. For isotope determinations, 0.5 mL of perfusate sample containing ^14C PEG-4000 and ^3H-mannitol was mixed with 5 mL of scintillation cocktail. Radioactivity was counted in a liquid scintillation counter (Wallac 1409). Glucose concentration was determined by the glucose oxidase method (Biochemistry Analyzer). Metoprolol and the ODV compounds were analyzed by HPLC-UV/Vis (HP-1100 with a diode-array detector), using a YMC AQ 120μ, 5μ, 150×4.6 mm column and step gradient mobile phase containing water/0.1% TFA and acetonitrile. The ODV compounds and metoprolol were detected at 226 and 272 nm UV wavelength, respectively. Blank perfusate was assayed to evaluate the interference at these chromatographic conditions.
The perfusions were performed in three intestinal sections of anesthetized rats: duodenum-jejunum, ileum, and colon. The lengths of the segments were approximately 10–12 cm for small intestine segments and 5–6 cm for colon segments. An inflow cannula was inserted at the proximal end and an outflow cannula was inserted at the distal end. Perfusate was pumped through the segment at 0.19 mL/min, and collected at 20, 40, 55, 70, 85 and 100 minutes.
ODV formate or fumarate was added to the perfusion working buffer at a concentration of 50 μg/mL, which is approximately equivalent to a 200 mg human dose. The disappearance rates of ODV compound, metoprolol, and glucose were determined from each collection interval by comparing to the initial compound solution remaining in the syringe at the end of the 100 minutes. This is to correct for any losses due to binding to the syringe or tubing. Meanwhile, drug concentration in perfusate samples were corrected for water influx/efflux, which was computed, based on ^14C-PEG-4000 concentration changes.
Recovery of ^14C-PEG-4000 was determined to provide information on the integrity of the perfused intestinal segment: % PEGrec=(ΣPEGout/ΣPEGin)*100
Overall ^14C-PEG-4000 recovery was calculated and any data for which the individual recovery fell outside of the range of 96%–103% was excluded from the data set. […]

[2] = in vivo, i.p.; cited from earlier work
Norepinephrine reuptake = settings: in vitro; read-out: Inhibition of amine reuptake (IC50): Norepinephrine; cited from earlier work
Serotonin reuptake = settings: in vitro; read-out: Inhibition of amine reuptake (IC50): Serotonin; cited from earlier work
Dopamine reuptake = settings: in vitro; read-out: Inhibition of amine reuptake (IC50): Dopamine; cited from earlier work
D2 = settings: cited from earlier work
Cholinergic = settings: cited from earlier work
Adrenergic a = settings: cited from earlier work
Histamine H1 = settings: cited from earlier work
Opiate = settings: cited from earlier work
[3] = Human fraction of dose absorbed (Fa) predicted from rat Peff; settings: for human in vivo Fa (fraction of dose absorbed), estimated: small intestine
From the text: as §1
The fraction of dose absorbed, Fa, in human is currently predicted from (Fagerholm, M. ibid: Fa=100*(1−e^−(2*(Peff,rat+β)*(tres/r)) where […] are the correction factors, tres is the residence time in human small intestine; and r is the radius of the human small intestine. Results Rat Jejunal Perfusion Results Site-Specific Absorption of ODV Formate

Solubility in water = assay type: physicochemical; settings: 26 °C, room temperature (about 25 to 27° C.)
From the text: High solubility and high oral absorption are desireable characteristics of a drug, making this salt form of O desmethyl venlafaxine a particularly useful form of O-desmethyl venlafaxine.

[4] = male, CD, in vivo, 100 min, 50 μg/mL, pH 6.8

Peff Metoprolol ([1]; colon, metoprolol 20 μg/mL tested simultaneously with ODV formate): 0.583 ± 0.087 10^−5 cm/sec | Peff Metoprolol ([1]; colon, metoprolol 20 μg/mL tested simultaneously with ODV fumarate): 11 10^−5 cm/sec | Peff Metoprolol ([1]; ileum, metoprolol 20 μg/mL tested simultaneously with ODV formate): 3.22 ± 0.07 10^−5 cm/sec | Peff Metoprolol ([1]; ileum, metoprolol 20 μg/mL tested simultaneously with ODV fumarate): 5.3 10^−5 cm/sec | Peff Metoprolol ([1]; jejunum, metoprolol 20 μg/mL tested simultaneously with ODV formate): 2.50 ± 0.11 10^−5 cm/sec | Peff Metoprolol ([1]; jejunum, metoprolol 20 μg/mL tested simultaneously with ODV fumarate): 1.78 ± 0.93 10^−5 cm/sec
SMILES: COCCc1ccc(OCC(O)CNC(C)C)cc1 (centres unmarked) [Metoprolol]

SMILES: CN(C)CC(c1ccc(O)cc1)C1(O)CCCCC1 (centres unmarked) [O-desmethylvenlafaxine, 1-[2-(dimethylamino)-1-(4-phenol)ethyl]cyclohexanol]
Reversal of Reserpine-Induce Hypothermia (minimum effect) [2]: 3 mg/kg i.p. | IC50 (Norepinephrine reuptake): 1160 nM | IC50 (Serotonin reuptake): 180 nM | IC50 (Dopamine reuptake): 13400 nM | Affinity for Various Neuroreceptors (% inhibition at 1 uM): D2 (D2): 6% | Affinity for Various Neuroreceptors (% inhibition at 1 uM): Cholinergic (Cholinergic): 7% | Affinity for Various Neuroreceptors (% inhibition at 1 uM): Adrenergic a (Adrenergic a): 0% | Affinity for Various Neuroreceptors (% inhibition at 1 uM): Histamine H1 (Histamine H1): 0% | Affinity for Various Neuroreceptors (% inhibition at 1 uM): Opiate (Opiate): 7%

SMILES: CN(C)CC(c1ccc(O)cc1)C1(O)CCCCC1.O=CO (centres unmarked) [ODV formate, O-desmethylvenlafaxine formate]
Peff as percent of metoprolol's Peff value [1, 4]: about 12% | Peff values in the small intestine [1, 4]: 1.34–2.18 10^−5 cm/sec | human in vivo Fa (fraction of dose absorbed), estimated [3]: about 80% | solubility (Solubility in water): > 425 mg/mL

SMILES: CN(C)CC(c1ccc(O)cc1)C1(O)CCCCC1.O=C(O)/C=C/C(=O)O (centres unmarked) [ODV fumarate]
Absorption in the colon ([1]; colon): no measurable absorption | Peff ODV Fumarate / Peff Metoprolol ([1]; colon): 0 | Peff ODV Fumarate ([1]; colon): 0 10^−5 cm/sec | Peff ODV Fumarate / Peff Metoprolol ([1]; ileum): 0.19 ± 0.06 | Peff ODV Fumarate ([1]; ileum): 0.678 ± 0.295 10^−5 cm/sec | Peff ODV Fumarate / Peff Metoprolol ([1]; jejunum): 0.09 | Peff ODV Fumarate ([1]; jejunum): 0.245 10^−5 cm/sec | Peff values in the small intestine ([1]; small intestine (jejunum to ileum)): 0.24–0.68 10^−5 cm/sec | in vivo Fa (fraction of dose absorbed), estimated ([3]; colon): 0% | human in vivo Fa (fraction of dose absorbed), estimated [3]: 33–45%
